Here are results for 3 molecules from US9421220B2, “Anti-cancer composition comprising alginate” (THE UNIVERSITY OF BIRMINGHAM EDGBASTON, priority 2009, dated 2016).

One experiment deals with Apc^Min/+ mouse. The experiment in a line: Tumour burden in Apc^Min/+ mice. The settings on record: for effect on tumour number, size or tumour burden compared to control mice: Apc^Min/+ mice fed control diet, sub-cutaneous injection. The format is in vivo. As for the experimental part:
To delineate how iron mediates colorectal carcinogenesis in-vivo, further experiments were carried out using the ‘Apc^Min/+’ mouse. These mice carry a mutation which disrupts the ability of the APC tumour suppressor to bind and turnover b-catenin, and the mice develop 100's of benign adenomas.
Apc^Min/+ mice were fed a standard control diet (n=17) or an iron deficient diet (n=11) immediately post weaning with tumour burden being assessed at 80 days of age. In addition mice were fed a high iron diet (standard control diet supplemented with 2% reduced pentacarbonyl iron (Harlan UK)) (n=6) but in these animals tumour burden was assessed at 45 days of age. A fourth group of Apc^Min/+ mice (n=9), were fed the standard control diet but upon reaching 50 days of age were injected sub-cutaneously with iron dextran (50 mgs) with tumour burden being assessed at 85 days of age. A fifth group of Apc^Min/+ mice (n=9), were fed the standard control diet and post weaning were injected daily sub-cutaneously with the systemic iron chelator desferioxamine (200 mgs/kg).

Experiment [1] has as its system cells containing a mutant APC protein. The settings on record: cells deficient in the APC protein exposed to iron; cited from earlier work.
Experiment [2] deals with normal human colonic cells. Particulars: normal cells exposed to increased levels of iron; cited from earlier work.

Consider `CC(=O)N(O)CCCCCNC(=O)CCC(=O)N(O)CCCCCNC(=O)CCC(=O)N(O)CCCCCN` [desferioxamine], for which the “effect on tumour number, size or tumour burden compared to control mice” value in the experiment with Apc^Min/+ mouse is listed as “no effect”.

`[Fe]` [iron]: the “cellular viability and proliferation” value in experiment [1] is “increased”. Besides, the phenotypic effects result in experiment [2] was “no phenotypic effects”. Consider iron dextran, for which, in the experiment with Apc^Min/+ mouse, the “effect on tumour number, size or tumour burden compared to control mice” value is reported as “no effect”. Besides, the tumour burden result in the experiment on Apc^Min/+ mouse (Apc^Min/+ mice on iron deficient diet co-administered with iron dextran) is given as “suppression”.
